# Source: patent US11254722B2, “Recombinant proteins and uses thereof” (ACADEMIA SINICA, priority 2017, dated 2022)
# Assays:
# 3t3 = 3t3 proliferation assay; assay type: cell-based; details: PDGF-AB-induced
# Procedure: MCF-7 cells (a breast cancer cell line) were maintained in MEM (GIBCO) plus insulin and NEAA and 10% FBS (Hyclone).
# (§1) For the proliferation assay, cells except for HUVEC were seeded at a density of 1,000 to 6,000 in 96 wells in an assay buffer of DMEM/F12 plus 0.2% BSA and 10 ug/ml transferrin. Chemical inhibitors were added after 16-20 hours after plating; IGF-1 or other growth factors or test chimeras in assay buffer were added at the time of plating or 16-20 hours after plating. 5,000 HUVEC ells were plated in poly-L-lysine coated 96 wells in M199 with 1%/FBS and HEPES. After 3 to 4 days of culture, growth was determined by incubating cells with Alamar blue for 4 to 6 hours and then the fluorescence (RFU) at 544/590 nm was read. For long term proliferation assays, cells were plated in the growth media with 5% or 10% FBS at densities of 500 to 10,000 cells per cm^2 growth area and grown for 7 to 21 days. Inhibitors and effectors were added 1-4 days after plating. Cells were exposed to cisplatin or gemcitabine for two days. Medium was renewed twice weekly. At completion, cells were fixed and then stained with Giemsa.
# [1] = tested on: MCF-7 breast cancer cells; assay: MCF-7 proliferation assay; assay type: cell-based
# Summary of the method: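 MCF-7 cells seeded at 1,000–6,000/well in serum-free DMEM/F12 with 0.2% BSA and 10 ug/ml transferrin; proliferation induced by growth factors (IGF-1, IGF-2, EGF, TGF-a, Nrgbx, b-FGF, amphiregulin); test chimeras added at plating or 16–20 h later. Growth read after 3–4 days by Alamar blue fluorescence (544/590 nm, 4–6 h).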
# cancer cells = assay: In vitro proliferation of cancer cells stimulated by growth factors (Table 8); assay type: cell-based
# Procedure: as §1
# The BP3-fc construct inhibited the proliferation of cancer cells that had been stimulated by IGF-1, IGF-2, neuregulin, HGF, and bFGF.
# [2] = target: T1, nrgEGF (amino acids Thr176-Lys246 of neuregulin-beta 1) (Homo sapiens, UniProt Q02297); assay: Biacore binding to nrgEGF
# T1 construct: Thr176-Lys246 of neuregulin-beta 1; purchased R&D Sciences or SinoBiologicals
# T1 sequence (Q02297 176-246 isoform Q02297-6): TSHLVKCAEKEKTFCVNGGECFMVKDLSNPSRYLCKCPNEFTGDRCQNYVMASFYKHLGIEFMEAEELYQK
# Procedure: (§2) Biacore binding was performed at David Myszka's laboratory at the University of Utah or at the Genomic Research Center at Academia Sinica. Surfaces of binding protein chimera were made via chemical immobilization on a CM4 chip using standard amine coupling chemistry. […] Excess surface carboxyl activated sites on all four flow cells was blocked using the doubly positively charged species ethylenediamine. Binding experiments (but not immobilizations) in HBS-P (10 mM HEPES pH 7.4, 150 mM NaCl, 0.05% P20), The HBS-P was supplemented with BSA at 0.2 mg/mL, or HBS-P was supplemented with 500 mM NaCl (650 mM NaCl, final concentration). Analytes were also reconstituted in the corresponding buffer. All experiments were performed at 25° C. 1/150 dilutions of phosphoric acid were used to regenerate IGFBP3-Fc surfaces and a sequence of 3 M MgCl2 followed by 5 M GuCl was used to regenerate surfaces immobilized with growth factor. Dissociation constants reported below used immobilized binding protein unless noted. Differences between binding constants may be expected between growth factor immobilization and chimera immobilization.
# (§3) In this example, erbB4 domain 1 was attached to the N-terminus of the recombinant IGFBP3-Fc or the recombinant IGFBP3-v1v2-Fc.
# [3] = target: T2, nrgECD (amino acids Ser2-Lys246 of neuregulin beta 1) (Homo sapiens, UniProt Q02297); assay: Biacore binding to nrgECD; details: immobilized nrgECD
# T2 construct: Ser2-Lys246 of neuregulin beta 1; purchased R&D Sciences or SinoBiologicals
# T2 sequence (Q02297 2-246 isoform Q02297-6): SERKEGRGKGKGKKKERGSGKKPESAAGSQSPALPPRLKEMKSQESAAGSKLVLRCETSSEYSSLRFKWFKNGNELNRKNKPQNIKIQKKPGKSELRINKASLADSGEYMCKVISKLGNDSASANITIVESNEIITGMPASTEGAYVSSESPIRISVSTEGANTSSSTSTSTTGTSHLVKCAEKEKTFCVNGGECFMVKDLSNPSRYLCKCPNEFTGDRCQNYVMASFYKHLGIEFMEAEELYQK
# Procedure: as §2, §3
# PIGF = target: T3, PIGF (Homo sapiens, UniProt P49763); assay: In vitro proliferation stimulated by PIGF (Table 8); assay type: cell-based
# T3 construct: purchased R&D Sciences or SinoBiologicals
# T3 sequence (P49763 19-221): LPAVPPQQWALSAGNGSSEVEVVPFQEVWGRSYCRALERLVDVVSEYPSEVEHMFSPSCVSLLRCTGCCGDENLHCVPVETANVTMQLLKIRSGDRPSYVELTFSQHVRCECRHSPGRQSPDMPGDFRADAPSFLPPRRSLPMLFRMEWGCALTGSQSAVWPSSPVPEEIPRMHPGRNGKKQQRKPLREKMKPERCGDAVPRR
# Procedure: as §1
# (§4) The BP3-VEGF-trap-fc (including the IGFBP3 domains, the VEGFR1 domain 2 and VEGFR2 domain 3 (VEGF-trap (22)), and human immunoglobulin Fc region) broadened the binding to include VEGF-A, VEGF-B, and placental growth factor (PIGF). This BP3-VEGF-trap chimera could inhibit the proliferation stimulated by IGF-1, IGF-2, neuregulin, PDGF-BB, HGF, bFGF, VEGF-A, and PIGF (see, Table 8).
# EGF = target: T4, EGF (Homo sapiens, UniProt P01133); assay: Binding to EGF
# T4 construct: purchased R&D Sciences or SinoBiologicals
# Excerpt: Table 3 lists the correlation between the IGFBP3 growth factor binding as determined by the inhibition of the proliferation by 56662. The observed inhibitory effects may derive from the growth factor sequestration, and/or IGFBP3 independent effects.
# VEGF = target: T5, VEGF (Homo sapiens, UniProt P15692); assay: In vitro proliferation stimulated by VEGF (Table 8); assay type: cell-based
# T5 construct: purchased R&D Systems
# T5 sequence (P15692 27-191 isoform P15692-4): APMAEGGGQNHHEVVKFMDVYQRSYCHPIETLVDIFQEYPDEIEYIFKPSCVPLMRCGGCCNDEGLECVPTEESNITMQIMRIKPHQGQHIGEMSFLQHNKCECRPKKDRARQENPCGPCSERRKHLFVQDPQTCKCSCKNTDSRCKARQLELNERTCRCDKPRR
# Procedure: as §1, §4
# T4 sequence (P01133 971-1023 limits assumed): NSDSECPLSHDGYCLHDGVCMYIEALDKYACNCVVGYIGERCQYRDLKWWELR
substance,measurement,setting,value
"56662: IGFBP3-Fc, SEQ ID NO: 7; unmodified IGFBP3 fused with the IgG Fc portion [compound 56662]","In vitro inhibition of proliferation, PDGF-AB",3t3,yes (3t3)
same,"In vitro inhibition of proliferation, EGF","[1]; EGF-induced, MCF-7 cells",yes
same,"In vitro inhibition of proliferation, IGF-1","[1]; IGF-1-induced, MCF-7 cells",yes
same,"In vitro inhibition of proliferation, IGF-2","[1]; IGF-2-induced, MCF-7 cells",yes
same,"In vitro inhibition of proliferation, TGF-α","[1]; TGF-α-induced, MCF-7 cells",yes
same,"In vitro inhibition of proliferation, VEGF-165","[1]; VEGF-165, MCF-7 cells per footnote",no
same,"In vitro inhibition of proliferation, bFGF","[1]; bFGF-induced, MCF-7 cells",yes
same,inhibition of FBS-induced proliferation of MCF-7,"[1]; fetal bovine serum, FIG. 1, FIG. 4",inhibited
same,inhibition of proliferation induced by long-R3-IGF-1,"[1]; high concentrations of 56662, FIG. 2",can inhibit
same,"In vitro inhibition of proliferation, neuregulin","[1]; neuregulin-induced, MCF-7 cells",yes
same,inhibition of proliferation stimulated by bFGF,cancer cells,inh
same,Kd nrgEGF,[2],No binding
same,Kd,[3],5.3 nM
same,inhibition of proliferation stimulated by PIGF,PIGF,no
same,binding to EGF,EGF,did not bind
same,inhibition of proliferation stimulated by VEGF,VEGF,no
